In ChEMBL document CHEMBL1146921, “Synthesis and antibacterial activity of 6-O-heteroarylcarbamoyl-11,12-lactoketolides” (2006):
Converted amounts (≈) assume the structure as drawn.

How the values were obtained:
Assay type in all cases: functional
[1] = test system: Staphylococcus aureus; experiment: Antibacterial activity against Staphylococcus aureus Smith OC4172 in presence of 50% mouse serum
[2] = test system: Streptococcus pneumoniae; experiment: Antibacterial activity against erythromycin-resistant Streptococcus pneumoniae OC4421
[3] = test system: Staphylococcus aureus; experiment: Antibacterial activity against Staphylococcus aureus Smith OC4172
[4] = test system: Streptococcus pneumoniae; experiment: Antibacterial activity against erythromycin-resistant Streptococcus pneumoniae OC4051
[5] = test system: Haemophilus influenzae; experiment: Antibacterial activity against Haemophilus influenzae OC4882
[6] = test system: Streptococcus pneumoniae; experiment: Antibacterial activity against erythromycin-susceptible Streptococcus pneumoniae ATCC 6301

SMILES	MIC [1] [µg/mL]	MIC [2] [µg/mL]	MIC [3] [µg/mL]	MIC [4] [µg/mL]	MIC [5] [µg/mL]	MIC [6] [µg/mL]
CC[C@H]1OC(=O)[C@H](C)C(=O)[C@H](C)[C@@H](O[C@@H]2O[C@H](C)C[C@H](N(C)C)[C@H]2O)[C@](C)(OC(=O)NC/C=C/c2ccc(-c3ncccn3)cc2)C[C@@H](C)C(=O)[C@@H](C)[C@H]2CC(=O)O[C@@]21C	16	1 (≈ 1.2 µM)	2 (≈ 2.4 µM)	2 (≈ 2.4 µM)	8 (≈ 9.58 µM)	0.12 (≈ 0.144 µM)
CC[C@H]1OC(=O)[C@H](C)C(=O)[C@H](C)[C@@H](O[C@@H]2O[C@H](C)C[C@H](N(C)C)[C@H]2O)[C@](C)(OC(=O)NC/C=C/c2cncc3ccccc23)C[C@@H](C)C(=O)[C@H](C)[C@H]2CC(=O)O[C@@]21C	4	0.25 (≈ 0.309 µM)	0.5 (≈ 0.619 µM)	0.25 (≈ 0.309 µM)	4 (≈ 4.95 µM)	≤ 0.015
CC[C@H]1OC(=O)[C@H](C)C(=O)[C@H](C)[C@@H](O[C@@H]2O[C@H](C)C[C@H](N(C)C)[C@H]2O)[C@](C)(OC(=O)NC/C=C/c2cccc(-c3ncccn3)c2)C[C@@H](C)C(=O)[C@H](C)[C@H]2CC(=O)O[C@@]21C	2	0.5 (≈ 0.599 µM)	0.5 (≈ 0.599 µM)	0.25 (≈ 0.299 µM)	4 (≈ 4.79 µM)	0.06 (≈ 0.0719 µM)
CC[C@H]1OC(=O)[C@H](C)C(=O)[C@H](C)[C@@H](O[C@@H]2O[C@H](C)C[C@H](N(C)C)[C@H]2O)[C@](C)(OC(=O)NC/C=C/c2ccc(-c3ccccc3)nc2)C[C@@H](C)C(=O)[C@H](C)[C@H]2CC(=O)O[C@@]21C	2	0.5 (≈ 0.6 µM)	0.5 (≈ 0.6 µM)	0.5 (≈ 0.6 µM)	8 (≈ 9.59 µM)	
CC[C@H]1OC(=O)[C@H](C)C(=O)[C@H](C)[C@@H](O[C@@H]2O[C@H](C)C[C@H](N(C)C)[C@H]2O)[C@](C)(OC(=O)NC/C=C/c2ccc3nccnc3c2)C[C@@H](C)C(=O)[C@H](C)[C@H]2CC(=O)O[C@@]21C	2	0.5 (≈ 0.618 µM)	0.5 (≈ 0.618 µM)	0.25 (≈ 0.309 µM)	4 (≈ 4.94 µM)	0.03 (≈ 0.0371 µM)
CC[C@H]1OC(=O)[C@H](C)C(=O)[C@H](C)[C@@H](O[C@@H]2O[C@H](C)C[C@H](N(C)C)[C@H]2O)[C@](C)(OC(=O)NC/C=C/c2ccc(-c3ccccn3)cc2)C[C@@H](C)C(=O)[C@H](C)[C@H]2CC(=O)O[C@@]21C	2	0.5 (≈ 0.6 µM)	0.5 (≈ 0.6 µM)	0.25 (≈ 0.3 µM)	8 (≈ 9.59 µM)	0.06 (≈ 0.0719 µM)
CC[C@H]1OC(=O)[C@H](C)C(=O)[C@H](C)[C@@H](O[C@@H]2O[C@H](C)C[C@H](N(C)C)[C@H]2O)[C@](C)(OC)C[C@@H](C)C(=O)[C@H](C)[C@H]2N(CCCCn3cnc(-c4cccnc4)c3)C(=O)O[C@]12C [TELITHROMYCIN]	0.5	0.12 (≈ 0.148 µM)	0.12 (≈ 0.148 µM)	0.06 (≈ 0.0739 µM)	2 (≈ 2.46 µM)	0.015 (≈ 0.0185 µM)
CC[C@H]1OC(=O)[C@H](C)C(=O)[C@H](C)[C@@H](O[C@@H]2O[C@H](C)C[C@H](N(C)C)[C@H]2O)[C@](C)(OC(=O)NC/C=C/c2cccnc2)C[C@@H](C)C(=O)[C@H](C)[C@H]2CC(=O)O[C@@]21C	1	0.5 (≈ 0.66 µM)	1 (≈ 1.32 µM)	2 (≈ 2.64 µM)	4 (≈ 5.28 µM)	0.03 (≈ 0.0396 µM)
CC[C@H]1OC(=O)[C@H](C)C(=O)[C@H](C)[C@@H](O[C@@H]2O[C@H](C)C[C@H](N(C)C)[C@H]2O)[C@](C)(OC(=O)NC/C=C/c2ccc(-c3ncccn3)cc2)C[C@@H](C)C(=O)[C@H](C)[C@H]2CC(=O)O[C@@]21C	0.5	0.25 (≈ 0.299 µM)	0.12 (≈ 0.144 µM)	0.06 (≈ 0.0719 µM)	8 (≈ 9.58 µM)	0.03 (≈ 0.0359 µM)
CC[C@H]1OC(=O)[C@H](C)C(=O)[C@H](C)[C@@H](O[C@@H]2O[C@H](C)C[C@H](N(C)C)[C@H]2O)[C@](C)(OC(=O)NCc2ccc3ncccc3c2)C[C@@H](C)C(=O)[C@H](C)[C@H]2CC(=O)O[C@@]21C	4	0.5 (≈ 0.639 µM)	1 (≈ 1.28 µM)	2 (≈ 2.56 µM)	8 (≈ 10.2 µM)	0.06 (≈ 0.0767 µM)
CC[C@H]1OC(=O)[C@H](C)C(=O)[C@H](C)[C@@H](O[C@@H]2O[C@H](C)C[C@H](N(C)C)[C@H]2O)[C@](C)(OC(=O)NC/C=C/c2ccc3cccnc3c2)C[C@@H](C)C(=O)[C@H](C)[C@H]2CC(=O)O[C@@]21C	4	0.25 (≈ 0.309 µM)	0.25 (≈ 0.309 µM)	0.12 (≈ 0.149 µM)	2 (≈ 2.48 µM)	0.03 (≈ 0.0371 µM)
CC[C@H]1OC(=O)[C@H](C)C(=O)[C@H](C)[C@@H](O[C@@H]2O[C@H](C)C[C@H](N(C)C)[C@H]2O)[C@](C)(OC(=O)NC/C=C/c2ccc(-c3ncccn3)cc2)C[C@@H](C)C(=O)[C@H](C)[C@H]2NC(=O)O[C@@]21C	0.25	0.06 (≈ 0.0718 µM)	0.12 (≈ 0.144 µM)	0.06 (≈ 0.0718 µM)	4 (≈ 4.78 µM)	0.03 (≈ 0.0359 µM)
CC[C@H]1OC(=O)[C@H](C)C(=O)[C@H](C)[C@@H](O[C@@H]2O[C@H](C)C[C@H](N(C)C)[C@H]2O)[C@](C)(OC(=O)NC/C=C/c2cnc3ccccc3c2)C[C@@H](C)C(=O)[C@H](C)[C@H]2CC(=O)O[C@@]21C	2	0.25 (≈ 0.309 µM)	0.5 (≈ 0.619 µM)	0.12 (≈ 0.149 µM)	8 (≈ 9.9 µM)	≤ 0.015
CC[C@H]1OC(=O)[C@H](C)C(=O)[C@H](C)[C@@H](O[C@@H]2O[C@H](C)C[C@H](N(C)C)[C@H]2O)[C@](C)(OC(=O)NCc2ccc(-c3ccccn3)cc2)C[C@@H](C)C(=O)[C@H](C)[C@H]2CC(=O)O[C@@]21C	8	0.5 (≈ 0.619 µM)	1 (≈ 1.24 µM)	0.25 (≈ 0.309 µM)	16 (≈ 19.8 µM)	0.03 (≈ 0.0371 µM)
CC[C@H]1OC(=O)[C@H](C)C(=O)[C@H](C)[C@@H](O[C@@H]2O[C@H](C)C[C@H](N(C)C)[C@H]2O)[C@](C)(OC(=O)NC/C=C/c2ccc3ncccc3c2)C[C@@H](C)C(=O)[C@H](C)[C@H]2CC(=O)O[C@@]21C	2	0.25 (≈ 0.309 µM)	0.5 (≈ 0.619 µM)	0.12 (≈ 0.149 µM)	2 (≈ 2.48 µM)	0.03 (≈ 0.0371 µM)
CC[C@H]1OC(=O)[C@H](C)[C@@H](O[C@H]2C[C@@](C)(OC)[C@@H](O)[C@H](C)O2)[C@H](C)[C@@H](O[C@@H]2O[C@H](C)C[C@H](N(C)C)[C@H]2O)[C@](C)(O)C[C@@H](C)C(=O)[C@H](C)[C@@H](O)[C@]1(C)O [ERYTHROMYCIN]	0.12	4 (≈ 5.45 µM)	0.5 (≈ 0.681 µM)	> 16	8 (≈ 10.9 µM)	0.06 (≈ 0.0818 µM)
CC[C@H]1OC(=O)[C@H](C)C(=O)[C@H](C)[C@@H](O[C@@H]2O[C@H](C)C[C@H](N(C)C)[C@H]2O)[C@](C)(OC(=O)NCc2cnc3ccccc3c2)C[C@@H](C)C(=O)[C@H](C)[C@H]2CC(=O)O[C@@]21C	4	0.5 (≈ 0.639 µM)	0.5 (≈ 0.639 µM)	0.5 (≈ 0.639 µM)	8 (≈ 10.2 µM)	0.06 (≈ 0.0767 µM)
